Measured values reported in patent US5254576A, “Diphenyl-heterocyclic-oxazole as platelet aggregation inhibitors” (Bristol-Myers Squibb Company, priority 1992, dated 1993).
≈ marks a conversion by molar mass, not a printed value.

Assays:
[1] = test system: ADP-induced aggregation of human blood platelets; experiment: cells; conditions: Platelet, read-out: IC50 (human PRP vs ADP)
human PRP vs ADP = conditions: U.S. Pat. No. 4,460,598; Lautenschlager, et al., Drugs of the Future, 11, 26 (1986); cited from earlier work
platelet aggregation = conditions: prior art (U.S. Pat. No. 4,460,598; EPO 0434034); cited from earlier work

| SMILES | IC50 [1] | IC50 (human PRP vs ADP) (human PRP vs ADP) | inhibition of platelet aggregation, in words (platelet aggregation) |
| --- | --- | --- | --- |
| COC(=O)COc1cccc(-c2ocnc2-c2nc(-c3ccccc3)c(-c3ccccc3)[nH]2)c1 [Compound 22] | 0.13 µg/mL (≈ 0.288 µM) | – | – |
| COC(=O)COc1cccc(-c2ocnc2-c2nc(-c3ccsc3)c(-c3ccsc3)o2)c1 [Compound 19] | 0.19 µg/mL (≈ 0.409 µM) | – | – |
| O=C(O)CCCCCCCOc1nc(-c2ccccc2)c(-c2ccccc2)n1-c1ccccc1 [Octimibate] | – | 1 µg/mL (≈ 2.2 µM) | broad spectrum inhibitor of platelet aggregation |
| O=C(O)COc1cccc(-c2ocnc2-c2nc(-c3ccsc3)c(-c3ccsc3)o2)c1 [Compound 20] | 0.21 µg/mL (≈ 0.466 µM) | – | – |
| COCOc1cccc(-c2ocnc2-c2nc(-c3ccccc3)c(-c3ccccc3)o2)c1 [Compound 10] | 28 µg/mL (≈ 66 µM) | – | – |
| COC(=O)COc1cccc(-c2ocnc2-c2nnc(-c3ccccc3)n2-c2ccccc2)c1 [Compound 16, Methyl [3-[4-(4,5-diphenyl-4H-1,2,4-triazol-3-yl)-5-oxazolyl]phenoxy]acetate] | > 32 µg/mL | – | – |
| COC(=O)COc1cccc(-c2ocnc2-c2nc(-c3ccccc3)c(-c3ccccc3)s2)c1 [Compound 31] | 0.26 µg/mL (≈ 0.555 µM) | – | – |
| O=C(O)COc1cccc(-c2ocnc2-c2nc(-c3ccccc3)c(-c3ccccc3)o2)c1 [Compound 5] | 0.012 µg/mL (≈ 0.0274 µM) | – | – |
| O=C(O)COc1cccc(-c2ocnc2-c2nc(-c3ccccc3)c(-c3ccccc3)[nH]2)c1 [Compound 23] | 0.012 µg/mL (≈ 0.0274 µM) | – | – |
| COC(=O)COc1cccc(-c2ocnc2-c2nc(-c3ccccc3)c(-c3ccccc3)o2)c1 [Compound 6] | 0.012 µg/mL (≈ 0.0265 µM) | – | – |
| O=C(O)COc1cccc(-c2ocnc2-c2nc(-c3ccccc3)c(-c3ccccc3)s2)c1 [Compound 32] | 0.096 µg/mL (≈ 0.211 µM) | – | – |
| c1ccc(-c2nc(-c3ncoc3-c3cccc(OCc4nnn[nH]4)c3)oc2-c2ccccc2)cc1 [Compound 12, 5-[3-[4-(4,5-Diphenyl-2-oxazolyl)-5-oxazolyl]-phenoxy]methyl-1H-tetrazole] | 0.06 µg/mL (≈ 0.13 µM) | – | – |
| O=C(O)COc1cccc(-c2ocnc2-c2nnc(-c3ccccc3)n2-c2ccccc2)c1 [Compound 17] | > 32 µg/mL | – | – |
